According to patent US20020032330A1, “Propionic acid derivatives” (priority 1996, published 2002):

Key:
KKA^y mouse = assay: Hypoglycemic and hypolipidemic effect in KKA^y mouse (oral, once a day for three days); assay type: in vivo; settings: KKA^y mice, blood 18 hours after final administration
Experimental: The hypoglycemic effect and hypolipidemic effect were examined using KKA^y mouse which was known as insulin-independent diabetic animal. A group of KKA^y mice (9 to 11 week age) were divided into several groups based on plasma glucose concentration. Each group included mice having an equal plasma glucose concentration. To the mouse was orally administered a compound of the invention in the form of suspension in a 1% methylcellulose solution. The administration was performed once a day and for a period of three days. To the control (mouse having been administered no hypoglycemic agent) was orally administered a 1% methylcellulose solution in the same manner.
After 18 hours from the final administration, blood was collected, and the plasma glucose concentration and the triglyceride concentration were measured. The measurements were performed using commercially available measuring kits (Glucose CII-TestWako and Triglyceride G-TestWako, respectively, both available from Wako Chemicals Co., Ltd.).
The plasma glucose concentration and the triglyceride concentration were examined for each of the divided mouse groups, and their ratio (%) per the corresponding values obtained in the control was calculated.
The same tests were also performed using the comparison compounds, that is, troglitazone and pioglitazone hydrochloride, which were known as pharmaceuticals for treating diabetes.

Row | SMILES | Plasma glucose concentration (% per control) (KKA^y mouse; dosage 100 mg/kg) | Triglyceride concentration (% per control) (KKA^y mouse; dosage 100 mg/kg) | Plasma glucose concentration (% per control) (KKA^y mouse; dosage 30 mg/kg) | Triglyceride concentration (% per control) (KKA^y mouse; dosage 30 mg/kg) | further results
1 | O=C(O)C(Cc1cnc2ccc(OCc3ccc(C(F)(F)F)cc3)cc2c1)Sc1ccccc1 (centres unmarked) [Compound 1, 3-[6-[(4-trifluoromethyl)benzyloxy]-3-quinolyl]-2-(phenylthio) propionic acid] | 68 % per control | 60 % per control |  |  | 
2 | CCOC(Cc1cnc2cc(OCc3ccc(Cl)cc3)ccc2c1)C(=O)O (centres unmarked) [Compound 4, 3-[7-(4-chlorobenzyloxy)-3-quinolyl]-2-ethoxypropionic acid] |  |  | 58 % per control | 61 % per control | 
3 | COCCOC(Cc1cnc2cc(OCc3ccc(Cl)cc3)ccc2c1)C(=O)O (centres unmarked) [Example 6, 3-[7-(4-Chlorobenzyloxy)-3-quinolyl]-2-(2-methoxyethoxy) propionic acid] |  |  |  |  | melting point: 110 to 113 °C
4 | COCCOC(Cc1cc2cc(OCc3ccc(C(F)(F)F)cc3)ccc2[nH]1)C(=O)O (centres unmarked) [Compound 2, 2-(2-methoxyethoxy)-3-[5-[(4-trifluoro-methyl)benzyloxy]-2-indolyl]propionic acid] |  |  | 53 % per control | 17 % per control | 
5 | COCCOC(Cc1cnc2ccc(OCc3ccc([N+](=O)[O-])cc3)cc2c1)C(=O)O (centres unmarked) [Example 7, 2-(2-Methoxyethoxy)-3-[6-(4-nitrobenzyloxy)-3-quinolyl]propionic acid] |  |  |  |  | melting point: 146 to 148 °C
6 | Cc1c(C)c2c(c(C)c1O)CCC(C)(COc1ccc(CC3SC(=O)NC3=O)cc1)O2 (centres unmarked) [Troglitazone, reference compound] | 68 % per control | 101 % per control | 84 % per control | 99 % per control | 
7 | CCCSC(Cc1cnc2cc(OCc3ccc(Cl)cc3)ccc2c1)C(=O)O (centres unmarked) [Example 2, 3-[7-(4-Chlorobenzyloxy)-3-quinolyl]-2-(propylthio) propionic acid] |  |  |  |  | melting point: 50 to 60 °C
8 | CCc1ccc(CCOc2ccc(CC3SC(=O)NC3=O)cc2)nc1.Cl (centres unmarked) [Pioglitazone hydrochloride, reference compound] | 65 % per control | 69 % per control | 68 % per control | 84 % per control | 
9 | Cc1oc(-c2ccccc2)nc1CCc1noc2cc(CC(Sc3ccccc3)C(=O)O)ccc12 (centres unmarked) [Compound 6, 2-phenylthio-3-[3-[2-(2-phenyl-5-methyl-4-oxazolyl)ethyl]-1,2-benzisoxazol-6-yl]-propionic acid] | 46 % per control | 31 % per control |  |  | 
10 | O=C(O)C(Cc1cnc2cc(OCc3ccc(Cl)cc3)ccc2c1)Oc1ccccc1 (centres unmarked) [Compound 5, 3-[7-(4-chlorobenzyloxy)-3-quinolyl]-2-phenoxypropionic acid] |  |  | 77 % per control | 81 % per control | 
11 | CCOC(Cc1ccc2c(CCc3nc(-c4ccccc4)oc3C)noc2c1)C(=O)O (centres unmarked) [Compound 7, 2-ethoxy-3-[3-[2-(2-phenyl-5-methyl-4-oxazolyl)ethyl]-1,2-benzisoxazol-6-yl]-propionic acid] |  |  |  |  | Plasma glucose concentration (% per control) (KKA^y mouse; dosage 1 mg/kg): 76 % per control; Triglyceride concentration (% per control) (KKA^y mouse; dosage 1 mg/kg): 87 % per control; Plasma glucose concentration (% per control) (KKA^y mouse; dosage 3 mg/kg): 61 % per control; Triglyceride concentration (% per control) (KKA^y mouse; dosage 3 mg/kg): 65 % per control; Plasma glucose concentration (% per control) (KKA^y mouse; dosage 10 mg/kg): 60 % per control; Triglyceride concentration (% per control) (KKA^y mouse; dosage 10 mg/kg): 45 % per control
12 | CCOC(Cc1cnc2ccc(OCc3ccc(Cl)cc3)cc2c1)C(=O)O (centres unmarked) [Compound 3, 3-[6-(4-chlorobenzyloxy)-3-quinolyl]-2-ethoxypropionic acid] |  |  | 63 % per control | 66 % per control | 
